Experimental findings from patent publication US8158317B2, “Azo dye compound, coloring composition, ink sheet for thermal transfer recording, thermal transfer recording method, color toner, ink for inkjet, and color filter” (FUJIFILM Corporation, priority 2006, dated 2012) are described below.

Holding throughout (type): physicochemical
The nature of series [1]: Maximum absorption wavelength of the absorption spectrum in ethyl acetate solution. The note with it: for Maximum Absorption Wavelength: concentration 1×10^−6 mol/L, optical path length 10 mm; for λmax: stated in the production example. An excerpt:
The maximum absorption wavelength of the absorption spectrum in an ethyl acetate solution (concentration 1×10^−6 mol/L; optical path length, 10 mm) of these compounds is shown in Table 1 below.

Series [2] in a line: Light stability (lightfastness) of thermal transfer images under Xe light. The note with it: Xe light (17000 lux) for 7 days; density retentiveness ratio to original reflection density 1.0; three ranks. As for the experimental part: Next, the recorded thermal transfer image-receiving materials were exposed to an Xe light (17000 lux) for 7 days and tested for the light stability (lightfastness) of the images. After the exposure, the status A reflection density of the part originally having a status A reflection density of 1.0 was measured, and the image stability was indicated by the density retentiveness ratio (percentage) to the original reflection density 1.0 before exposure. The samples were evaluated in three ranks, A (from 80% to less than 100%), B (from 60% to less than 80%), and C (less than 60%).

A short description of series [3]: Dye solubility when preparing the coating composition for dye-donating layer formation (ink sheet). Further details: key: A (soluble easily); B (soluble); C (soluble but hardly). The following applies: dye in coating composition with polyvinylbutyral resin, methyl ethyl ketone/toluene (1/1); three ranks. An excerpt: A polyester film (Lumirror, Toray's trade name) having a thickness of 6.0 μm and coated with a thermoplastic acrylic resin (thickness, 1 μm) for heat-resistant lubrication on the back thereof was used as a support. The following coating composition for dye-donating layer formation was applied onto the surface of the support film, in a mode of wire bar coating, thereby forming a coating layer having a dry thickness of 1 μm thereon to give an ink sheet 1.
(Coating Composition for Dye-donating Layer Formation)
Next, ink sheets 2 to 5 of the invention and comparative ink sheets 6 to 8 were formed in the same manner as that for the ink sheet 1 but using the dye shown in Table 2 below in place of Compound (1). In this process, the dye solubility was evaluated in three ranks; A (soluble easily), B (soluble), C (soluble but hardly).

SMILES strings stand for the structures.

Take `CN(C)C(=O)n1c(/N=N/c2c(C(C)(C)C)nn(C)c2N)nc(C#N)c1C#N` [(2)]: the “Maximum Absorption Wavelength” value in series [1] was found to be 439 nm. Moreover, in series [2], the Lightfastness entry is “A (A (from 80% to less than 100%))”. In addition, in series [3], the Solubility entry was “A”.
The corresponding values for `CC(=O)n1c(/N=N/c2c(C(C)(C)C)nn(C)c2N)nc(C#N)c1C#N` [(3)] are 452 nm, “A (A (from 80% to less than 100%))” and “A”.
On to `Cn1nc(C(C)(C)C)c(/N=N/c2nc(C#N)c(C#N)n2C(=O)c2ccccc2)c1N` [(4)], for which the “Maximum Absorption Wavelength” value in series [1] is recorded as 454 nm. Also, in series [2], the Lightfastness result was “A (A (from 80% to less than 100%))”. Besides, in series [3], the Solubility result is reported as “A”.
The corresponding values for `COC(=O)n1c(/N=N/c2c(C(C)(C)C)nn(C)c2N)nc(C#N)c1C#N` [(5)] are 451 nm, “A (A (from 80% to less than 100%))” and “A”.
With `CC(C)(C)c1nn(-c2ccccc2)c(N)c1/N=N/c1ccc([N+](=O)[O-])cc1` [Comparative Dye 1, reference compound], in series [2], the Lightfastness entry was “B (B (from 60% to less than 80%))”. Further, the Solubility entry in series [3] was “B”.
The corresponding values for `CCN(CC)C(=O)n1c(/N=N/c2ccc(N(CC)CC)cc2NC(C)=O)nc(C#N)c1C#N` [Comparative Dye 2, reference compound] are “B (B (from 60% to less than 80%))” and “A”.
`Cn1nc(C(C)(C)C)c(/N=N/c2nc(C#N)c(C#N)[nH]2)c1N` [Comparative Dye 3, reference compound] gave a λmax in series [1] of 432 nm. Moreover, in series [2], the Lightfastness result is “C (C (less than 60%))”. Besides, in series [3], the Solubility entry was “B”.
For the compound `CCN(CCOc1ccc(C2CCCCC2)cc1)c1ccc(C=C(C#N)C#N)c(C)c1` [Comparative Dye 4, reference compound], the Lightfastness result in series [2] is recorded as “C (C (less than 60%))”. Also, in series [3], the Solubility result is listed as “A”.
The corresponding values for `CCCCN(CCCC)C(=O)c1ccc2c(c1)C(=O)C(c1nc3ccc(C(C)C)cc3cc1O)C2=O` (stereo not drawn) [Comparative Dye 5, reference compound] are “A (A (from 80% to less than 100%))” and “B”.
`CCN(CC)C(=O)n1c(/N=N/c2c(C(C)(C)C)nn(C)c2N)nc(C#N)c1C#N` [Compound (1)]: in series [1], the “Maximum Absorption Wavelength” value amounted to 438 nm and the λmax stood at 438 nm. Moreover, the Lightfastness entry in series [2] is recorded as “A (A (from 80% to less than 100%))”. In addition, the Solubility result in series [3] was “A”.
